Results on 16 molecules are retold here after patent US20240023534A1, “Devices, Compositions and Methods for Insect Control” (Agriculture Victoria Services PTY LTD, priority 2020, published 2024).

Series [1] in a line: Gravimetric release rate and longevity of lure constituents in LDPE sachets. In kind it is physicochemical. To be noted: for Est. long. / Release rate: compound on wick in LDPE sachet, thickness, size, load per Table 1. Here is the method: The release rates of co-attractant components formulated in low density polyethylene (LDPE) sachets were investigated (FIG. 1).
The release rate and theoretical longevity of the lure constituents in sachets were tested in gravimetric experiments. Data were used to determine the optimal sachet thickness, size (surface area) and estimated longevity of individual components (FIG. 2).
A fixed volume (1 ml) of each lure constituent was individually loaded in 50 cm 2 of different thicknesses (50, 100, 150 and 200 μm). Sachets were weighed daily for the first 5 days and later at greater time intervals. Release rates of the compounds through different sachet thicknesses were inferred using sachet weight loss over time (FIG. 2). Only the linear part of the weight loss curve was considered in the calculations of release rates. The maximum estimated longevity was deduced from the calculated release rate and corrected based on adjusted sachet size and volume of chemical loaded.

A short description of series [2]: Release of compounds from the commercial co-attractant solution. It counts as physicochemical. Conditions: for Release rate (commercial solution): compound in commercial co-attractant solution; for duration of release in the current solution: current co-attractant solution.
The nature of series [3]: Sachet size, thickness, release rate and lure longevity studies (Table 3, based on GC-MS analysis). In kind it is physicochemical. To be noted: for Est. long. / Release rate: LDPE sachet per Table 3, based on GC-MS analysis. How it is done:
Studies determining optimal sachet size and thickness, lure concentration, release rates and lure longevity were performed as described in Table 3.

Series [4] has as its system C. davidsoni. The series can be described thus: GC-EAD of beetle antennae to Pichia kluyveri headspace volatiles. To be noted: female and male adults, P. kluyveri headspace volatiles. An excerpt: FIG. 6. GC-EAD responses of female (♀) and male (♂) C. davidsoni adults to headspace volatiles (black, FID chromatogram) of the fruit yeast Pichia kluyveri. […] IS=Internal standard, IS1=n-octane, IS2=Nonyl acetate.

The subject of series [5] is Carpophilus truncatus. The series can be described thus: Cage dual-choice bioassay, co-attractant with one ingredient suppressed. It counts as in vivo. To be noted: for attractiveness of commercial co-attractant in the absence of the compound / role of the compound: test solution lacking one ingredient vs CL in 45% ethanol, fifty beetles. Here is the method: FIG. 9. Boxplots representing the results of lab-conducted cage dual-choice assays on Carpophilus truncatus responses to odours. Between 50 and 100 beetles were simultaneously exposed to a solution of co-attractant […] one ingredient at a time was suppressed (treatments). The attraction index was calculated as follows: (number of beetles in test solution−number of beetles in control)/(total number of beetles). […] Line in the boxplots correspond to the median, top and bottom of the boxplots represent the 75th and 25th percentiles respectively while error bars depict the 5th and 95th percentiles. White dots are outliers. n correspond to the replication of each experiments. p values result from paired t-tests and stars indicate the level of statistical significance.
Fifty beetles were simultaneously exposed to a solution of co-attractant (control) and a solution of co-attractant from which one additive at a time was suppressed (treatments, see table 4). The attraction index was calculated as follows: (number of beetles in test solution—number of beetles in control)/(total number of beetles).

The subject of series [6] is C. truncatus. The series can be described thus: GC-EAD responses to W. rabaulensis odour. Conditions: W. rabaulensis headspace odour. Here is the method:
FIG. 10. […] 1-Acetaldehyde. 2-Ethanol. 3-Isobutanol. 4-Isopentyl alcohol. 5-2-Methyl butanol. 6-Isobutyl acetate. 7-Isopentyl acetate.
As co-attractants are derived from microbial odours, beetle attraction towards yeast odours isolated from the insect's gut was tested (Farrukh Baig, PhD thesis, 2020). […] Synthetic blends of the yeast odours were developed and field tested.

Series [7] concerns C. davidsoni. In words: Field trial of synthetic blends in peach orchard (Example 6). It counts as in vivo. Conditions: CL+2PA, CL+IA, CL+IA+2PA vs CL; five weeks, N=6.
Description: C. davidsoni catches using prototype co-attractant solutions in a stone fruit orchard (Shepparton, VIC). CL corresponds to the control (original Carpophilus Lure co-attractant), CL+IA (co-attractant+Isopentyl Acetate), CL+PA (co-attractant+2-Phenethyl acetate) and CL+IA+PA (co-attractant+Isopentyl Acetate+2-Phenethyl acetate). […] Number of replicates per treatment N=6.
Synthetic blends consisting of the combination of the existing carpophilus lure with two new potential yeast attractants; namely Isopentyl acetate and 2-phenylethyl acetate; were formulated based on their respective ratio to ethyl acetate (Table 2) and tested in the field.
Field trials were conducted in a peach orchard in Invergordon (Victoria). Treatments included the original carpophilus lure (CL: control), the original lure combined with Isopentyl acetate (CL+IA) or with 2-phenylethylacetate (CL+2PA) or both (CL+IA+2PA). Six replicates of each odour blend were placed in black funnel traps held on pickets at 1.5 m height, arranged in randomized transects. Beetles were collected and synthetic blends replaced weekly over a 5-week period.
These compounds were tested either separately or together in the existing Carpophilus co-attractant and compared with the original co-attractant in the field. The trial was conducted over a five week period during which the beetles were collected and the lure solutions renewed weekly.

Each structure is given as a SMILES string. “Also recorded” adds a separate entry of the source.

Take `CC(C)CCO` [Isopentyl alcohol]: the Est. long. in series [1] and in series [3] was 300 days in each case. Moreover, the Release rate in series [1] and in series [3] was 3.4 mg/day in each case. Also, the “Release rate (commercial solution)” value in series [2] stood at 3.3 mg/day. In addition, the GC-EAD antennal response entry in series [4] is “consistent physiological responses”. Also, in series [5] (further cage bioassay experiments), the “effect of increased concentrations on lure efficacy” value is “increase in lure efficacy”. Besides, the “attractiveness of commercial co-attractant in the absence of the compound / role of the compound” value in series [5] is on record as “significantly less attractive”.
Consider `CCC1CCC(=O)O1` (stereo not shown) [γ-caprolactone], for which, in series [4], the GC-EAD antennal response entry was “consistent physiological responses”.
Regarding `CC(=O)OCC(C)C` [Isobutyl acetate], the “antennal responses (GC-EAD)” value in series [6] was “strong antennal responses”. The GC-EAD antennal response entry in series [4] is “consistent physiological responses”.
`CC(=O)OCCC(C)C` [Isopentyl acetate]: the “antennal responses (GC-EAD)” value in series [6] is reported as “strong antennal responses”. In addition, the GC-EAD antennal response entry in series [4] is “consistent physiological responses; also recorded: strong sensitivity”. Further, in series [7], the “effect on beetle capture of adding the compound to the original co-attractant (CL)” value was “reduce lure attractiveness”.
For `CCC(=O)OCCc1ccccc1` [2-phenylethylpropionate], in series [4], the GC-EAD antennal response entry is on record as “consistent physiological responses”.
For the molecule `CCO` [ethanol], the “permeation through the LDPE layers” value in series [1] (LDPE sachets) is recorded as “limited permeation”. The “maximum release rate achievable with thin sachets” value in series [1] (thin LDPE sachets, lab experiments) is reported as around 25 mg/day. Further, the “ethanol emission rates in the commercial lure” value in series [2] (commercial lure) amounted to 2.5 g/day. In addition, the “attractiveness of commercial co-attractant in the absence of the compound / role of the compound” value in series [5] is on record as “significantly less attractive”.
As for `CCC(C)CO` (stereo not shown) [2-methyl-butanol], in series [1], the Est. long. is listed as 200+ days and the Release rate turned out to be 4.3 mg/day. Also, the “Release rate (commercial solution)” value in series [2] was found to be 0.6 mg/day. In series [3], the Est. long. was 200+ days and the Release rate is given as 4.3 mg/day. Also, the GC-EAD antennal response result in series [4] is recorded as “consistent physiological responses”. For the same molecule, the “attractiveness of commercial co-attractant in the absence of the compound / role of the compound” value in series [5] is “significantly more attractive”.
Take `CCCCCCCC(=O)OCC` [Ethyl octanoate]: the GC-EAD antennal response entry in series [4] is given as “consistent physiological responses”.
For the molecule `CC=O` [acetaldehyde], the “duration of release when applied in sachets” value in series [1] (LDPE sachets) is 1 week. In series [1], this molecule had an Est. long. of 7 days and a Release rate of 50 mg/day. In series [2], the “Release rate (commercial solution)” value was 43 mg/day and the “duration of release in the current solution” value was 1 days. In series [3], this molecule showed an Est. long. of 40 days and a Release rate of 50 mg/day. Also, the “attractiveness of commercial co-attractant in the absence of the compound / role of the compound” value in series [5] was “tend to act as an attractant”.
Consider `CCOC(C)=O` [ethyl acetate], for which, in series [1] (LDPE sachets), the “duration of release when applied in sachets” value stood at 1 week. In series [1], the Est. long. was determined as 15 days and the Release rate is 136 mg/day. In series [2], the “Release rate (commercial solution)” value worked out at 110 mg/day and the “duration of release in the current solution” value came to 1 days. In series [3], this molecule came in with an Est. long. of 15 days and a Release rate of 136 mg/day. Further, in series [4], the GC-EAD antennal response entry is listed as “consistent physiological responses”. In series [5], the “attractiveness of commercial co-attractant in the absence of the compound / role of the compound” value is “seem to not influence”.
Regarding `CCCOC(C)=O` [Propyl acetate], in series [4], the GC-EAD antennal response entry was “consistent physiological responses”.
On the same count and under the same terms, with `CC(=O)OCc1ccco1` [2-furanmethanol acetate] the entry was “consistent physiological responses”.
`CC(=O)OCCc1ccccc1` [2-phenylethylacetate]: in series [3], the Est. long. is recorded as 70+ days and the Release rate is 28 mg/day. In series [3] (dispensed in sachets), the longevity in sachets result is “over 70 days”. Further, the GC-EAD antennal response result in series [4] is recorded as “consistent physiological responses”. Besides, the GC-EAD antennal response result in series [4] (listed as 2-phenethyl acetate) was “strong sensitivity”. For the same molecule, the “effect on beetle capture of adding the compound to the original co-attractant (CL)” value in series [7] is “significantly more beetles”.
With `CCCCOC(C)=O` [Butyl acetate], in series [4], the GC-EAD antennal response result is “consistent physiological responses”.
Turning to `CC(C)CO` [Isobutyl alcohol], the Est. long. in series [1] and in series [3] was 200+ days in each case. Further, the Release rate in series [1] and in series [3] was 4.9 mg/day throughout. Further, the “Release rate (commercial solution)” value in series [2] came out at 2.9 mg/day. For the same molecule, the GC-EAD antennal response result in series [4] is on record as “consistent physiological responses”. In addition, in series [5], the “attractiveness of commercial co-attractant in the absence of the compound / role of the compound” value is “seem to not influence”.
Regarding `CC(=O)OCc1ccccc1` [Phenylmethyl acetate], the GC-EAD antennal response entry in series [4] was “consistent physiological responses”.
